According to US20110166112A1, “METHOD FOR STIMULATING PLATELET PRODUCTION” (Eisai, Inc., priority 2009, published 2011):
Marks after values point to notes of the source that are not given here.

Columns and labels:
[1] = system: subjects with chronic ITP; assay: Recurrence of thrombocytopenia upon discontinuation of E5501 (platelet count below 10,000/mm^3); type: in vivo, human; conditions: for Recurrence of thrombocytopenia: Relation To E5501: assessed by the investigator
Protocol: Recurrence of Thrombocytopenia. Recurrence of thrombocytopenia has been previously reported and is of special interest in this population. Recurrence of thrombocytopenia was defined as a platelet count that decreased to below 10,000/mm^3 upon discontinuation of E5501. In this study, 9 subjects potentially met the criteria for recurrence of thrombocytopenia. Three were deemed serious; all 3 recovered.
All 9 cases occurred at an E5501 dose of 10 mg or above, and the majority (n=6/9) occurred within 2 weeks after discontinuation of E5501 (FIG. 3). However, recurrent thrombocytopenia was seen up to 4 weeks after the last dose of study drug.

[2] = system: subjects with chronic ITP; assay: Treatment-emergent bleeding events (WHO Bleeding Scale; Kaplan-Meier time to first bleeding event); type: in vivo, human
Excerpt: As used herein, the term “bleeding” refers to any bleeding, as measured by the World Health Organization's Bleeding Scale (e.g., Grade 0=no bleeding; Grade 1=petechial bleeding; Grade 2=clinical significant mild blood loss; […]=gross (severe) blood loss, requiring transfusion; Grade 5=debilitating blood loss, retinal or cerebral associated with fatality). In some embodiments, the bleeding may be due to a low platelet count.
Bleeding Events. During the combined study period, 43 (67.2%) of the 64 subjects reported a treatment-emergent bleeding event (Table 23). Gingival bleeding was the most frequently reported bleeding event, occurring in 7 subjects (10.9%). All were grade 1 (n=6) or grade 2 (n=1) and none were considered to be related to study drug.
Using Kaplan-Meier methods, the estimated median time to the first bleeding event was 8 weeks (95% CI: 4.7-15.3 weeks) after initiation of E5501 (FIG. 5).

[3] = Lower ⅓ dose (2.5-<8.85 mg), N=22
[4] = Middle ⅓ dose (≧8.85-<13.5 mg), N=22
[5] = Upper ⅓ dose (≧13.5-≦25.7 mg), N=20

With `O=C(Nc1nc(-c2cc(Cl)cs2)c(N2CCN(C3CCCCC3)CC2)s1)c1cnc(N2CCC(C(=O)O)CC2)c(Cl)c1` [E5501, 1-(3-chloro-5-{[4-(4-chlorothiophen-2-yl)-5-(4-cyclohexylpiperazin-1-yl)thiazol-2-yl]carbamoyl}pyridine-2-yl)piperidine-4-carboxylic acid] the “Recurrence of thrombocytopenia: Outcome” value ([1]; Subject A, 20-30 mg, 1st entry) was “Recovered”, the “Recurrence of thrombocytopenia: Platelet Count” value (“Recurrence … Platelet Count” below) ([1]; Subject A, 20-30 mg, 1st entry) was 3 K/mm^3 and the “Recurrence of thrombocytopenia: Serious” value ([1]; Subject A, 20-30 mg, 1st entry) was “No”. For the same molecule, the “Recurrence of thrombocytopenia: Study Days (No. Days Posttreatment)” value (“Recurrence … (No. Days Posttreatment)” for short) ([1]; Subject A, 20-30 mg, 1st entry) was 193 (17) Days, the “Recurrence of thrombocytopenia: Relation To E5501” value (shortened to “Recurrence … Relation To E5501”) ([1]; Subject A, 20-30 mg, 1st entry) was “Not related” and the “Recurrence of thrombocytopenia: Outcome” value ([1]; Subject A, 20-30 mg, 2nd entry) was “Recovered”. For the same molecule, the “Recurrence … Platelet Count” value ([1]; Subject A, 20-30 mg, 2nd entry) was 6 K/mm^3, the “Recurrence of thrombocytopenia: Serious” value ([1]; Subject A, 20-30 mg, 2nd entry) was “No” and the “Recurrence … (No. Days Posttreatment)” value ([1]; Subject A, 20-30 mg, 2nd entry) was 235 (59) Days. For the same molecule, the “Recurrence … Relation To E5501” value ([1]; Subject A, 20-30 mg, 2nd entry) was “Not related”, the “Recurrence of thrombocytopenia: Outcome” value ([1]; Subject A, 20-30 mg, 3rd entry) was “Recovered” and the “Recurrence … Platelet Count” value ([1]; Subject A, 20-30 mg, 3rd entry) was 4 K/mm^3. The “Recurrence of thrombocytopenia: Serious” value ([1]; Subject A, 20-30 mg, 3rd entry) was “No”, the “Recurrence … (No. Days Posttreatment)” value ([1]; Subject A, 20-30 mg, 3rd entry) was 249 (73) Days and the “Recurrence … Relation To E5501” value ([1]; Subject A, 20-30 mg, 3rd entry) was “Not related”. For the same molecule, the “Recurrence … Platelet Count” value ([1]; Subject B, 10 mg) was 1 K/mm^3, the “Recurrence of thrombocytopenia: Serious” value ([1]; Subject B, 10 mg) was “No” and the “Recurrence … (No. Days Posttreatment)” value ([1]; Subject B, 10 mg) was 209 (28) Days. The “Recurrence of thrombocytopenia: Outcome” value ([1]; Subject C, 10-20 mg) was “Recovered”, the “Recurrence … Platelet Count” value ([1]; Subject C, 10-20 mg) was 6 K/mm^3 and the “Recurrence of thrombocytopenia: Serious” value ([1]; Subject C, 10-20 mg) was “No”. For the same molecule, the “Recurrence … (No. Days Posttreatment)” value ([1]; Subject C, 10-20 mg) was 182 (14) Days, the “Recurrence … Relation To E5501” value ([1]; Subject C, 10-20 mg) was “Probably” and the “Recurrence of thrombocytopenia: Outcome” value ([1]; Subject D, 20 mg) was “Recovered”. For the same molecule, the “Recurrence … Platelet Count” value ([1]; Subject D, 20 mg) was 1 K/mm^3, the “Recurrence of thrombocytopenia: Serious” value ([1]; Subject D, 20 mg) was “Serious” and the “Recurrence … (No. Days Posttreatment)” value ([1]; Subject D, 20 mg) was 193 (10) Days. The “Recurrence … Relation To E5501” value ([1]; Subject D, 20 mg) was “Not related”, the “Recurrence … Platelet Count” value ([1]; Subject E, 10 mg) was 8 K/mm^3 and the “Recurrence of thrombocytopenia: Serious” value ([1]; Subject E, 10 mg) was “No”. For the same molecule, the “Recurrence … (No. Days Posttreatment)” value ([1]; Subject E, 10 mg) was 209 (7) Days, the “Recurrence of thrombocytopenia: Outcome” value ([1]; Subject F, 20 mg) was “Recovered” and the “Recurrence … Platelet Count” value ([1]; Subject F, 20 mg) was 8 K/mm^3. The “Recurrence of thrombocytopenia: Serious” value ([1]; Subject F, 20 mg) was “Serious”, the “Recurrence … (No. Days Posttreatment)” value ([1]; Subject F, 20 mg) was 192 (11) Days and the “Recurrence … Relation To E5501” value ([1]; Subject F, 20 mg) was “Not related”. For the same molecule, the “Recurrence of thrombocytopenia: Outcome” value ([1]; Subject G, 2.5-12.5 mg) was “Recovered”, the “Recurrence of thrombocytopenia: Serious” value ([1]; Subject G, 2.5-12.5 mg) was “Serious” and the “Recurrence … (No. Days Posttreatment)” value ([1]; Subject G, 2.5-12.5 mg) was 179 (13) Days. For the same molecule, the “Recurrence … Relation To E5501” value ([1]; Subject G, 2.5-12.5 mg) was “Probably”, the “Recurrence … Platelet Count” value ([1]; Subject G, 2.5-12.5 mg, recorded 3 days before the event) was 16^g K/mm^3 and the “Recurrence of thrombocytopenia: Outcome” value ([1]; Subject H, 10-40 mg) was “Recovered”. The “Recurrence … Platelet Count” value ([1]; Subject H, 10-40 mg) was 4 K/mm^3, the “Recurrence of thrombocytopenia: Serious” value ([1]; Subject H, 10-40 mg) was “No” and the “Recurrence … (No. Days Posttreatment)” value ([1]; Subject H, 10-40 mg) was 143 (16) Days. For the same molecule, the “Recurrence … Relation To E5501” value ([1]; Subject H, 10-40 mg) was “Not related”, the “Recurrence of thrombocytopenia: Outcome” value ([1]; Subject I, 10-20 mg, 1st entry) was “Recovered” and the “Recurrence … Platelet Count” value ([1]; Subject I, 10-20 mg, 1st entry) was 8 K/mm^3. The “Recurrence of thrombocytopenia: Serious” value ([1]; Subject I, 10-20 mg, 1st entry) was “No”, the “Recurrence … (No. Days Posttreatment)” value ([1]; Subject I, 10-20 mg, 1st entry) was 181 (13) Days and the “Recurrence … Relation To E5501” value ([1]; Subject I, 10-20 mg, 1st entry) was “Not related”. The “Recurrence of thrombocytopenia: Outcome” value ([1]; Subject I, 10-20 mg, 2nd entry) was “Recovered”, the “Recurrence … Platelet Count” value ([1]; Subject I, 10-20 mg, 2nd entry) was 9 K/mm^3 and the “Recurrence of thrombocytopenia: Serious” value ([1]; Subject I, 10-20 mg, 2nd entry) was “No”. The “Recurrence … (No. Days Posttreatment)” value ([1]; Subject I, 10-20 mg, 2nd entry) was 233 (65) Days, the “Recurrence … Relation To E5501” value ([1]; Subject I, 10-20 mg, 2nd entry) was “Not related” and the “recurrences of thrombocytopenia deemed serious” value ([1]; in vivo) was “Three”. For the same molecule, the “recurrences of thrombocytopenia within 2 weeks after discontinuation of E5501” value ([1]; of 9 cases) was 6 n, the “subjects who potentially met the criteria for recurrence of thrombocytopenia” value ([1]; upon discontinuation, E5501 dose of 10 mg or above) was 9 subjects and the “Any TE bleeding event, % of subjects” value ([2]; E5501 Total, N=64) was “(67.2) %”. The “Any TE bleeding event, n of subjects” value ([2]; E5501 Total, N=64) was 43, the “TE bleeding event, highest toxicity Grade 1, % of subjects” value ([2]; E5501 Total, N=64) was “(45.3) %” and the “TE bleeding event, highest toxicity Grade 1, n of subjects” value ([2]; E5501 Total, N=64) was 29. The “TE bleeding event, highest toxicity Grade 2, % of subjects” value ([2]; E5501 Total, N=64) was “(17.2) %”, the “TE bleeding event, highest toxicity Grade 2, n of subjects” value ([2]; E5501 Total, N=64) was 11 and the “TE bleeding event, highest toxicity Grade 3, % of subjects” value ([2]; E5501 Total, N=64) was “(4.7) %”. For the same molecule, the “TE bleeding event, highest toxicity Grade 3, n of subjects” value ([2]; E5501 Total, N=64) was 3, the “TE bleeding event, highest toxicity Grade 4, % of subjects” value ([2]; E5501 Total, N=64) was “(1.6) %” and the “TE bleeding event, highest toxicity Grade 4, n of subjects” value ([2]; E5501 Total, N=64) was 1. The “TE bleeding event, highest toxicity Grade 5, n of subjects” value ([2]; E5501 Total, N=64) was 0, the “estimated median time to the first bleeding event” value ([2]; Kaplan-Meier, after initiation of E5501, 95% CI: 4.7-15.3 weeks) was 8 weeks and the “Any TE bleeding event, % of subjects” value [2, 3] was “(68.2) %”. The “Any TE bleeding event, n of subjects” value [2, 3] was 15, the “TE bleeding event, highest toxicity Grade 1, % of subjects” value [2, 3] was “(50.0) %” and the “TE bleeding event, highest toxicity Grade 1, n of subjects” value [2, 3] was 11. The “TE bleeding event, highest toxicity Grade 2, % of subjects” value [2, 3] was “(9.1) %”, the “TE bleeding event, highest toxicity Grade 2, n of subjects” value [2, 3] was 2 and the “TE bleeding event, highest toxicity Grade 3, % of subjects” value [2, 3] was “(4.5) %”. The “TE bleeding event, highest toxicity Grade 3, n of subjects” value [2, 3] was 1, the “TE bleeding event, highest toxicity Grade 4, % of subjects” value [2, 3] was “(4.5) %” and the “TE bleeding event, highest toxicity Grade 4, n of subjects” value [2, 3] was 1. The “TE bleeding event, highest toxicity Grade 5, n of subjects” value [2, 3] was 0, the “Any TE bleeding event, % of subjects” value [2, 4] was “(63.6) %” and the “Any TE bleeding event, n of subjects” value [2, 4] was 14. For the same molecule, the “TE bleeding event, highest toxicity Grade 1, % of subjects” value [2, 4] was “(40.9) %”, the “TE bleeding event, highest toxicity Grade 1, n of subjects” value [2, 4] was 9 and the “TE bleeding event, highest toxicity Grade 2, % of subjects” value [2, 4] was “(13.6) %”. The “TE bleeding event, highest toxicity Grade 2, n of subjects” value [2, 4] was 3, the “TE bleeding event, highest toxicity Grade 3, % of subjects” value [2, 4] was “(9.1) %” and the “TE bleeding event, highest toxicity Grade 3, n of subjects” value [2, 4] was 2. The “TE bleeding event, highest toxicity Grade 4, n of subjects” value [2, 4] was 0, the “TE bleeding event, highest toxicity Grade 5, n of subjects” value [2, 4] was 0 and the “Any TE bleeding event, % of subjects” value [2, 5] was 70.0%. For the same molecule, the “Any TE bleeding event, n of subjects” value [2, 5] was 14, the “TE bleeding event, highest toxicity Grade 1, % of subjects” value [2, 5] was 40.0% and the “TE bleeding event, highest toxicity Grade 1, n of subjects” value [2, 5] was 8. The “TE bleeding event, highest toxicity Grade 2, % of subjects” value [2, 5] was 30.0%, the “TE bleeding event, highest toxicity Grade 2, n of subjects” value [2, 5] was 6 and the “TE bleeding event, highest toxicity Grade 3, n of subjects” value [2, 5] was 0. For the same molecule, the “TE bleeding event, highest toxicity Grade 4, n of subjects” value [2, 5] was 0, the “TE bleeding event, highest toxicity Grade 5, n of subjects” value [2, 5] was 0 and the “subjects with a clinically significant, grade 3 or 4 bleeding event” value ([2]; combined study period) was “Four”. The “subjects reporting a treatment-emergent bleeding event” value ([2]; combined study period, 64 subjects) was 67.2%.
